The target of data set [1] is T1, CYP3A4/5 (Homo sapiens, UniProt P08684+P20815). Briefly: Time dependent inhibition of CYP3A4/5 (unknown origin) at 30 uM measured after 30 mins relative to control. The class given is protein assay. As to conditions: read-out: TDI.
The target of data set [2] is T1, CYP3A4/5. Briefly: Time dependent inhibition of CYP3A4/5 (unknown origin) assessed as remaining activity at 30 uM relative to control. The class given is protein assay. As to conditions: read-out: Activity.
The target of data set [3] is T1, CYP3A4/5. Kind of data set: Time dependent inhibition of CYP3A4/5 (unknown origin) in absence of NADPH. The data set is classed as ADME, protein assay.
Data set [4] concerns the target T1, CYP3A4/5. Kind of data set: Time dependent inhibition of CYP3A4/5 (unknown origin) in presence of NADPH. The class given is ADME, protein assay.
A short description of another data set: physchem. As to conditions: octanol/water.
Data set [5] deals with Epidermal growth factor receptor (Homo sapiens, UniProt P00533, C797S/L858R/T790M). Kind of data set: Binding affinity to EGFR L858R/T790M/C797S mutant (unknown origin) assessed as inhibition constant incubated for 30 mins in presence of ATP by Real-time fluorescence based analysis.
The target in data set [6] is Epidermal growth factor receptor (Homo sapiens, UniProt P00533). Briefly: Binding affinity to wild type EGFR (unknown origin) assessed as inhibition constant incubated for 30 mins in presence of ATP by Real-time fluorescence based analysis.
Data set [7] concerns the target T1, CYP3A4/5. Briefly: Time dependent inhibition of CYP3A4/5 (unknown origin) at 30 uM measured after 10 mins relative to control. As to conditions: read-out: TDI. The data set is classed as ADME, protein assay.
Data set [8] has as its target T1, CYP3A4/5. Briefly: Reversible inhibition of CYP3A4/5 (unknown origin) at 30 uM relative to control. The class given is ADME, protein assay.

Bounds are passed on as bounds.

Chain of Epidermal growth factor receptor (Homo sapiens, UniProt P00533) (P00533 whole entry): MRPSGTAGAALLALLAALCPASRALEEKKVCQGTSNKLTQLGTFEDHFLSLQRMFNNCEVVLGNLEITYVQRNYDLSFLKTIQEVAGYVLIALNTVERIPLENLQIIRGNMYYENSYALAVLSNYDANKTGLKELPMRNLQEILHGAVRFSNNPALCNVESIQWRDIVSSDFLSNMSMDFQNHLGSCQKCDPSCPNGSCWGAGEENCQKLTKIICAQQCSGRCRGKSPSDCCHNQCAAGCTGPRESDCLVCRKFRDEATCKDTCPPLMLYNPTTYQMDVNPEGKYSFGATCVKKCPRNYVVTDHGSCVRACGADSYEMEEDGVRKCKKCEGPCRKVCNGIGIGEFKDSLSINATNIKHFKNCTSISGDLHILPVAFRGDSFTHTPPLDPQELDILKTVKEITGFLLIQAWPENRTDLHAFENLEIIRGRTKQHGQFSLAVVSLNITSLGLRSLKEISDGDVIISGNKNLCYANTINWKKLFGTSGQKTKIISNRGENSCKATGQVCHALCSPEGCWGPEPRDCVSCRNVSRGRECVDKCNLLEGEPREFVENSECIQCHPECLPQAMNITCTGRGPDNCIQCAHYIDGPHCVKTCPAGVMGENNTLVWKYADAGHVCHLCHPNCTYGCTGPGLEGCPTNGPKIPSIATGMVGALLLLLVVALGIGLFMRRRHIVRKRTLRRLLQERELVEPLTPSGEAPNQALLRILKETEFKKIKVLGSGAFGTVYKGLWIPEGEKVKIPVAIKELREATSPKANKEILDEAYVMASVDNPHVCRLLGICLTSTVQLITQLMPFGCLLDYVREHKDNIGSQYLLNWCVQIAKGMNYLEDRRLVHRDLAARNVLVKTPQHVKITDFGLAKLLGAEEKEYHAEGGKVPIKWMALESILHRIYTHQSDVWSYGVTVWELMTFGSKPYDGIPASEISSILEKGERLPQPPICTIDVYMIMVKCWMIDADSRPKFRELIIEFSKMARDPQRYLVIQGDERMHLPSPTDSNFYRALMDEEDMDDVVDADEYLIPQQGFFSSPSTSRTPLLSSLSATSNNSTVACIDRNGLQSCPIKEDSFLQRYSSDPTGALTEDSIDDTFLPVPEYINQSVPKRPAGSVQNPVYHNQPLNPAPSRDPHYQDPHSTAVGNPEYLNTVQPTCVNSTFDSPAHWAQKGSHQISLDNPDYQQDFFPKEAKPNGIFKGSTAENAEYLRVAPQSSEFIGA
Chain of Epidermal growth factor receptor (Homo sapiens, UniProt P00533, C797S/L858R/T790M) (P00533 25-1210 T790M/C797S/L858R limits assumed): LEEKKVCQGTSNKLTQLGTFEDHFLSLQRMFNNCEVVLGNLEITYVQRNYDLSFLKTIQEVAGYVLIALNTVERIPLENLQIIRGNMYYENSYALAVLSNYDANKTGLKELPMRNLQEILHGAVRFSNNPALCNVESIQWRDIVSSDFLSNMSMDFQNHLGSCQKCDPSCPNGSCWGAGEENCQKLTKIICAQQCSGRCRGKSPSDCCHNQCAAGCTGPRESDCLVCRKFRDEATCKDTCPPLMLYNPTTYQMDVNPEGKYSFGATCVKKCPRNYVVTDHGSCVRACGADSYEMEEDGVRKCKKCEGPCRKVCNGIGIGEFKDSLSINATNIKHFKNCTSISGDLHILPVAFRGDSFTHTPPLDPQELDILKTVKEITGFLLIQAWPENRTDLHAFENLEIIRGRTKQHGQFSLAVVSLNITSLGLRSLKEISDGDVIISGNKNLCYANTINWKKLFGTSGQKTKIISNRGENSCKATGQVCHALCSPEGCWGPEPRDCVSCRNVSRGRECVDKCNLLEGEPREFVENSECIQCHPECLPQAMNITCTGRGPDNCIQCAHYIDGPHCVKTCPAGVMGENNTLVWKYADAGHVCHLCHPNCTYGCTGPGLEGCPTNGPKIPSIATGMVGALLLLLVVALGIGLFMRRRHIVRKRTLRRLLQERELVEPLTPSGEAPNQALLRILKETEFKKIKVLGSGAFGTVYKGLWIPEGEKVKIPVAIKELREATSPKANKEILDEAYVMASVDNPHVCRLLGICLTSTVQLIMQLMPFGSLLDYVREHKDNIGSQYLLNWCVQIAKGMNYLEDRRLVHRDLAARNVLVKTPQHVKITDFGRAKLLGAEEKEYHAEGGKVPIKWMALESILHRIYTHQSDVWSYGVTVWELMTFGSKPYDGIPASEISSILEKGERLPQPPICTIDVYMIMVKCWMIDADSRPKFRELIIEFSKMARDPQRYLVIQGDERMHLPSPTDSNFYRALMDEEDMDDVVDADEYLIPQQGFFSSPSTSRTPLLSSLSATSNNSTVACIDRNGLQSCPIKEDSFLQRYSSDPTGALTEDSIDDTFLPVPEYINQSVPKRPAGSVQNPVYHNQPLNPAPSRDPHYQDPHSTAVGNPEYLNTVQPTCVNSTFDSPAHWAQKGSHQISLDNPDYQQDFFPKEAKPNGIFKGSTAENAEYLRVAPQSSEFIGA

Regarding `CO[C@@H]1CCN(c2nccc(Nc3cc4n(C5CCC6(CC5)OCCO6)c(C#N)cn4n3)n2)C[C@@H]1F`, at CYP3A4/5 [1], the inhibition at 0.5 h, 30 µM worked out at 50%. Moreover, at CYP3A4/5 [2], the activity at 30 µM worked out at 78%.
One may read the IC50 as the concentration that inhibits the measured activity by half. On to `CN1CCC2(CCC(n3c(C(F)(F)F)cn4nc(Nc5ccnc(N6CC[C@@H](O)[C@@H](F)C6)n5)cc34)CC2)C1=O` (stereo partly drawn), for which the IC50 is 22000 nM against CYP3A4/5 [3] and greater than 1400 nM on CYP3A4/5 [4]. In addition, the inhibition at 0.5 h, 30 µM on CYP3A4/5 [1] was 34%. In addition, on CYP3A4/5 [2], the activity at 30 µM came to 86%.
As a reminder, the logD is the decadic logarithm of the distribution of all forms, ionised or not, between an organic phase and buffer at a given pH. Lower therefore signals lower lipophilicity. In general, Ki refers to the dissociation constant of the complex between target and ligand, obtained from inhibition or displacement. As for `COC1CCN(c2nccc(Nc3cc4n(C5CC5)c(C)cn4n3)n2)CC1`, the logD at 3 h in the data set “physchem” was found to be 3.37. Besides, the Ki in data set [5] is 950 nM; in [6], “Not_active”.
`COC1CCN(c2nccc(Nc3cc4n(C)c(C)cn4n3)n2)CC1` had a logD at 3 h in the data set “physchem” of 2.56. The figures for the inhibition constant (Ki) in [5] and in [6] were 6100 nM and “Not_active”, respectively.
On to `CO[C@@H]1CCN(c2nccc(Nc3cc4n(C5CCC6(CC5)OCCO6)c(C(=O)NCC5CN(C)C5)cn4n3)n2)C[C@@H]1F`, for which the inhibition at 0.5 h, 30 µM on CYP3A4/5 [1] is 26%. Besides, at CYP3A4/5 [2], the activity at 30 µM was greater than 99%.
In the data set “physchem”, `COC1CCN(c2nccc(Nc3cc4n(C5CCC(=O)CC5)c(C)cn4n3)n2)CC1` came in with a pH-dependent lipophilicity (logD) at 3 h of 2.27. In addition, the Ki in data set [5] was 27 nM; in [6], “Not_active”.
On to `CCc1cn2nc(Nc3ccnc(N4CC[C@@H](OC)[C@@H](F)C4)n3)cc2n1C1CCC2(CC1)OCCO2`, for which the inhibition at 0.5 h, 30 µM at CYP3A4/5 [1] was found to be 34.9%. Further, the activity at 30 µM on CYP3A4/5 [2] was 39%.
Take `CO[C@@H]1CCN(c2nccc(Nc3cc4n(C5CCC6(CC5)OCCO6)c(C)cn4n3)n2)C[C@@H]1F`: the inhibition at 10 min, 30 µM on CYP3A4/5 [7] worked out at 41.2%. The same molecule returned an inhibition at 30 µM against CYP3A4/5 [8] of 66%. The IC50 on CYP3A4/5 [3] was 820 nM; at CYP3A4/5 [4], 156000 nM. Also, the inhibition at 0.5 h, 30 µM at CYP3A4/5 [1] was found to be 52.4%. In addition, the activity at 30 µM on CYP3A4/5 [2] stood at 57%.
On to `Cc1cn2nc(Nc3ccnc(N4CC[C@@H](O)[C@@H](F)C4)n3)cc2n1C1C2CCCC1C2` (stereo partly drawn), for which, in “physchem”, the log distribution coefficient (logD) at 3 h stood at 3.32. Moreover, the Ki in data set [5] came to 9.9 nM; in data set [6] (read-out: Ki), 1700 nM.
With `O[C@@H]1CCN(c2nccc(Nc3cc4n(C5CCC6(CC5)OCCO6)c(C(F)(F)F)cn4n3)n2)C[C@@H]1F`, the IC50 stood at 5700 nM at CYP3A4/5 [3] and 2300 nM on CYP3A4/5 [4]. In addition, the inhibition at 0.5 h, 30 µM at CYP3A4/5 [1] came out at 8.3%. The activity at 30 µM at CYP3A4/5 [2] was 25%.
As to `CCNC(=O)c1cn2nc(Nc3ccnc(N4CC[C@@H](OC)[C@@H](F)C4)n3)cc2n1C1CCC2(CC1)OCCO2`, on CYP3A4/5 [1], the inhibition at 0.5 h, 30 µM came to 64%. In addition, at CYP3A4/5 [2], the activity at 30 µM stood at 98%.
Turning to `CCc1cn2nc(Nc3ccnc(N4CC[C@@H](OC)[C@@H](F)C4)n3)cc2n1[C@H]1CC[C@]2(CCN(C)C2=O)CC1`, at CYP3A4/5 [1], the inhibition at 0.5 h, 30 µM was found to be 55.8%. At CYP3A4/5 [2], the activity at 30 µM amounted to 65%.
Consider `CO[C@@H]1CCN(c2nccc(Nc3cc4n(C5CCC6(CC5)OCCO6)c(C(=O)NCC5CCN(C)CC5)cn4n3)n2)C[C@@H]1F`, for which, on CYP3A4/5 [1], the inhibition at 0.5 h, 30 µM turned out to be 24%. The activity at 30 µM on CYP3A4/5 [2] is greater than 99%.

(Values after ChEMBL document CHEMBL6074688, “Discovery of a Novel Mutant-Selective Epidermal Growth Factor Receptor Inhibitor Using an In Silico Enabled Drug Discovery Platform” (J Med Chem, 2024).)
